Assays:
NTD of human MFSD7C = target: T1, NTD of human MFSD7C (Homo sapiens, UniProt Q9UPI3); experiment: Gel-filtration assay of NTD and heme; format: binding; details: Superdex 75; absorbance 380 nm, 415 nm and 230 nm
T1 construct: Plasmid harboring GST-His-tag-SUMO-NTD (amino acids 1-84); GST-His-tag-SUMO (N, cleaved yes); made in house; host or cells: Escherichia coli Lemo21(DE3)
T1 sequence (Q9UPI3 1-84): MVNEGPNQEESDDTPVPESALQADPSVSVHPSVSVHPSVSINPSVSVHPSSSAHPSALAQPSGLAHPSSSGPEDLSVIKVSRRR
Procedure: Gel-filtration assay. Purified NTD (200 μM) was incubated with freshly prepared heme (150 μM) in a 1 mL reaction containing 5% DMSO, 25 mM HEPES-NaOH pH 7.8, and 10 mM NaCl. The solution was run over Superdex 75 (24 mL) gel-filtration column at 0.3 mL/min rate using AKTA-FPLC. Absorbance was monitored at 230, 380, and 415 nm. 2 mL injection volume was subtracted from the final elution volume. Solution containing dissolved hemin in the reaction buffer without the NTD protein aggregated on top of the Superdex 75 column, thus this control was avoided in our experiments.

[1] = target: T2, interaction between HMOX1 and MFSD7C (Mus musculus, UniProt Q91X85); experiment: Co-IP of HA-tagged MFSD7C with FLAG-tagged HMOX1 in transfected 293FT cells; format: cell-based, murine; details: 10 μM or 40 μM heme for one hour before cell lysis
T2 construct: expressed in transfected cells; host or cells: 293FT cells
T2 sequence (Q91X85 whole entry): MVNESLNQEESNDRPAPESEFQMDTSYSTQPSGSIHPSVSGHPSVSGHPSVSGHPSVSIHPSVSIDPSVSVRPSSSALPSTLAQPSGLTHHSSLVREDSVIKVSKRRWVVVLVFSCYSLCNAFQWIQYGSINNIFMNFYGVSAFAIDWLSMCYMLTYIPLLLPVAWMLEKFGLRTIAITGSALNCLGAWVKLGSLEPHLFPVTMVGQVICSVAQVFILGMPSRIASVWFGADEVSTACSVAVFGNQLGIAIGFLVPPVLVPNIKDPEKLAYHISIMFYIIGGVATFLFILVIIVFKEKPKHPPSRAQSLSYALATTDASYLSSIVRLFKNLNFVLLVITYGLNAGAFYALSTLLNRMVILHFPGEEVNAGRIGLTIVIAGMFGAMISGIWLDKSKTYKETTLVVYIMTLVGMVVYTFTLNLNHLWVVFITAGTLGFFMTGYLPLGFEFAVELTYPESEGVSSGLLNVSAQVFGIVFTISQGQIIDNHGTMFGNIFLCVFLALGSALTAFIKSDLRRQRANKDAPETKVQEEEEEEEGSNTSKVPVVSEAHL
T2 sequence (P14901 whole entry partner): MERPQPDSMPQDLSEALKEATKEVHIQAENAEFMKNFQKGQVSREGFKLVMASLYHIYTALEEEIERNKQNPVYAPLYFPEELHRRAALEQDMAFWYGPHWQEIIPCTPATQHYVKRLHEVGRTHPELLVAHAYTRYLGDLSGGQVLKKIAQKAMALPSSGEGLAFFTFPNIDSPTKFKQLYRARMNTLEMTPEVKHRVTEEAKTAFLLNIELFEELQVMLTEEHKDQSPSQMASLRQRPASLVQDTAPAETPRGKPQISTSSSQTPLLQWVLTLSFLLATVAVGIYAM
Procedure: Co-transfection and immunoprecipitation. For co-IP, HA-tagged MFSD7C was co-transfected with FLAG-tagged HMOX1 (Origene Catalog No. MR203944), CYC1, COX4I1, NDUFA4, ATP5h, ATP5c1 into 293FT cells using TransIT®-LT1 Transfection Reagent (Mirus). Thirty-six hours after transfection, the cells were lysed using cold Lysis Buffer containing 20 mM Tris-HCl (pH 7.4), 150 mM NaCl, 0.1% NP-40, 10% glycerol, proteinase inhibitor (Sigma Catalog No. 4693132001), and phosphatase inhibitors (Sigma Catalog No. 4906845001). The clear supernatants from the lysate were incubated with M2-magnetic beads conjugated with anti-FLAG antibody (Sigma Catalog No. M8823) for 2 hours at 4° C. Then the beads were washed twice and eluted by the 3× FLAG peptides (Sigma Catalog No. F4799).
To determine the effect of heme on MFSD7C interactions with ETC components, HMOX1 or SERCA2b, 293FT cells were transiently transfected with HA-tagged murine MFSD7C and FLAG-tagged murine CYC1, NDUFA4, COX4i1, ATP5h, ATP5c1, HMOX1 or SERCA2b. 35 hrs later, co-transfected cells were incubated with DMSO (vehicle) or 10 μM or 40 μM of heme for one hour before lysis. Cell lysates were precipitated with anti-HA antibody, eluted with HA peptide, further precipitated with anti-FLAG antibody, eluted with FLAG peptide, and then subjected to Western blotting with anti-HA and anti-FLAG antibodies. […]

SERCA2b = SERCA2b protein level by Western blotting, 4B8^FL cells; format: cell-based, human; details: 40 μM heme for one hour, reduction by MFSD7C^FL expression
Procedure: FIGS. 5A-5F show MFSD7C and heme regulate thermogenesis through SERCA2b in THP-1 cells. […] 30 hours later, MG132 was added into half of the cells and the other half was not treated. Another 35 hours later, some cells were treated with 40 μM heme for 1 hour before lysis. Cell lysates were immunoprecipitated with anti-FLAG antibody, and eluted, followed by anti-HA immunoprecipitation and elution. Total cell lysate and elute were subjected to Western blotting and probed with anti-SERCA2b or anti-MFSD7C antibodies. Shown are representative data from one of three experiments. […] 24 hrs later, cells were either not treated or treated with 10 μM MG132 for either 6 or 12 hours. The cells were lysed and subjected to FLAG pull-down and blotted with anti-MFSD7C, anti-SERCA2b and anti-ubiquitin antibodies. Shown are representative data from one of three experiments. […] Parental THP-1 cells were either not treated or treated with heme before lysis. Shown are representative data from one of four experiments. […] Shown are representative data from one of two experiments. […] Cells were washed and treated with 40 μM heme for one hour before flow cytometry. Representative FPT histograms from one of three experiments are shown. […] Shown are representative FPT histograms from one of three experiments.
Endogenous protein extraction. […]

THP-1 cells = experiment: Thermogenesis by fluorescent polymeric thermometer (FPT), flow cytometry; format: cell-based, human; details: heme treatment for one hour
Procedure: In the second approach, we used fluorescent polymeric thermometer (FPT), which we synthesized in-house (see above). Parental and knockout THP-1 cells were mixed together, washed and incubated with FPT in 5% w/v glucose solution for 6 hrs. The cells were washed with PBS twice and reseeded in dishes with glass bottom that was coated with poly-lysine. The cells were imaged under Confocal Laser-Scanning Microscopy at 37° C. Alternatively, THP-1, MCF7, 293T, 7CKO, SERCA2b^−/− cells were incubated with FPT and control polymer overnight and followed with vehicle or hematin treatment for 1 hour. Then the fluorescence intensities were determined by a flow cytometer.

`C=CC1=C(C)c2cc3[n-]c(cc4[n-]c(cc5nc(cc1n2)C(C)=C5C=C)c(C)c4CCC(=O)O)c(CCC(=O)O)c3C.[Fe+2]` [heme] was tested, and the “co-elution in gel-filtration chromatography” value (NTD of human MFSD7C) was “co-eluted with the NTD”, the “interaction between HMOX1 and MFSD7C (co-IP)” value [1] was “enhanced” and the SERCA2b level (SERCA2b) was “restored”. For the same compound, the “FPT fluorescence by flow cytometry” value (THP-1 cells) was “almost all cells had dramatically increased fluorescence”.

— patent US20230313199A1, “TARGET FOR MODULATING BODY MASS” (Massachusetts Institute of Technology, priority 2020, published 2023)
